# Data from ChEMBL document CHEMBL1201862, “PubChem BioAssay data set” (2004).
# Calls of active or inactive are those of the source.
# Key:
# [1] = HGIII-sPLA2 enzyme inhibition potency – biochemical, QFRET, IC50, dose response (AID 743457);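 further: green fluorescence rise as the enzyme cleaves BODIPY PC-A2 in liposomes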
# [2] = target: Albumin (Bos taurus, UniProt P02769); assay: Counterscreen for inhibitors of T-cell receptor (TCR)-CD3 interaction: Fluorescence-based biochemical high throughput dose response assay to identify inhibitors of T-cell receptor (TCR)-CD3 interaction using a TAMRA-labeled BSA probe.; assay type: functional
# Albumin, sequence (P02769 whole entry, the tested form may be a part): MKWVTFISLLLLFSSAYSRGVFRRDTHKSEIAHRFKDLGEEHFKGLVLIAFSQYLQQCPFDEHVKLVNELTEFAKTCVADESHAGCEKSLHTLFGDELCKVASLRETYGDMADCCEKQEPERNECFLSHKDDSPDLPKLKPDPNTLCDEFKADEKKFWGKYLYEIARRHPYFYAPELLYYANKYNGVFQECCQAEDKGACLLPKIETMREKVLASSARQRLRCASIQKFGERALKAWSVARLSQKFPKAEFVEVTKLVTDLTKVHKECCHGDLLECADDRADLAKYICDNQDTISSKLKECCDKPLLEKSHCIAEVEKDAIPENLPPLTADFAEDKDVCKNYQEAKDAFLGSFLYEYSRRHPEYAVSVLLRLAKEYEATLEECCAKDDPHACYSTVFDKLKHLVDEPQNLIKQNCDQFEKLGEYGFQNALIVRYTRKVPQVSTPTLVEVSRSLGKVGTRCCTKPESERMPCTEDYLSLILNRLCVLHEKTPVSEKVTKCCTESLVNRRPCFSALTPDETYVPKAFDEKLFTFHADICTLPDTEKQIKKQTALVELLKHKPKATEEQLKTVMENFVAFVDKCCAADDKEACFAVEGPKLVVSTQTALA
# [3] = target: Disintegrin and metalloproteinase domain-containing protein 17 (Homo sapiens, UniProt P78536); assay: exosite inhibitors of ADAM17, dose response, biochemical (AID 743260)
# Disintegrin and metalloproteinase domain-containing protein 17, sequence (P78536 whole entry, the tested form may be a part): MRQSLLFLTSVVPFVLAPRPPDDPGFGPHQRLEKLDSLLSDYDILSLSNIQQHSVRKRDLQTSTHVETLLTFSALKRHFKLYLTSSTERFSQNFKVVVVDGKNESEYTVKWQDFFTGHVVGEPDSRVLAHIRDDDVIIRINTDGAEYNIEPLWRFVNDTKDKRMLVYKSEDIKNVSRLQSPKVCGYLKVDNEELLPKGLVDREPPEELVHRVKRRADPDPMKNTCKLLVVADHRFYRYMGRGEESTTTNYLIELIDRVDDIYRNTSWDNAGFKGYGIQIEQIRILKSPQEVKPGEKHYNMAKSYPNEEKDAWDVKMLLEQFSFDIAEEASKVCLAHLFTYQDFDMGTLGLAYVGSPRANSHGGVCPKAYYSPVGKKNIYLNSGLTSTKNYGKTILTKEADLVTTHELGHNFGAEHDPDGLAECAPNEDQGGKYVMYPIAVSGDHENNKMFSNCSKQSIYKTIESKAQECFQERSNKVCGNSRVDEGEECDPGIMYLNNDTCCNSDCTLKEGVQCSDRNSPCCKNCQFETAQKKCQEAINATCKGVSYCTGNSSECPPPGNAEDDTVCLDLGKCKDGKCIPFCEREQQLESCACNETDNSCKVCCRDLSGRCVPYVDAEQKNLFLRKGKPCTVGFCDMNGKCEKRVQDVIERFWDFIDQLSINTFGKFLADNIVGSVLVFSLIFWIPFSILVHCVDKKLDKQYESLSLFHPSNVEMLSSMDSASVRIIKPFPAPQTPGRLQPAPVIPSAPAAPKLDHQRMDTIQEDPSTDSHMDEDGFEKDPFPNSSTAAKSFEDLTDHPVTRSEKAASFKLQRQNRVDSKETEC
# [4] = inhibition of ADAM10 peptide cleavage – biochemical, FRET peptide substrate, recombinant human ADAM10, selectivity assay for ADAM17 exosite inhibitor project, dose response (AID 743259);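 further: ADAM10 enzyme cleaving a FRET peptide substrate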
# [5] = Counterscreen for […] of the human trace amine associated receptor 1 (TAAR1): Fluorescence-based cell-based high throughput dose response assay to identify nonselective Ga16 agonists.; assay type: functional
# [6] = target: T1, Trace amine-associated receptor 1 (Homo sapiens, UniProt Q96RJ0); assay: Counterscreen for antagonists of the human trace amine associated receptor 1 (hTAAR1): Fluorescence-based cell-based high throughput dose response assay to identify TAAR1 Agonists.; assay type: functional
# T1 sequence (Q96RJ0 whole entry): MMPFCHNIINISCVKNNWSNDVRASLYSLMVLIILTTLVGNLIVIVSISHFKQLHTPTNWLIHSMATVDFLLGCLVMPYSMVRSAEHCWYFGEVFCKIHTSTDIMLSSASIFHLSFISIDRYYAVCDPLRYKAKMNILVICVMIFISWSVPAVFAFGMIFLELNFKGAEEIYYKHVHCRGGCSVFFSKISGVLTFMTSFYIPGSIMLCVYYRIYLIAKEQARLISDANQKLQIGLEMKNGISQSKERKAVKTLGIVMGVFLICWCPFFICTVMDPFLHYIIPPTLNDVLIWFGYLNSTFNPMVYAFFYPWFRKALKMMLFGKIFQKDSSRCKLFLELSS
# [7] = target: T1, Trace amine-associated receptor 1; assay: Fluorescence-based cell-based high throughput dose response assay to identify antagonists of the human trace amine associated receptor 1 (TAAR1).; assay type: functional
# [8] = Counterscreen for antagonists of the human trace amine associated receptor 1 (hTAAR1): Fluorescence-based cell-based high throughput dose response assay to identify nonselective Ga16 antagonists.; assay type: functional
# [9] = target: T2, Hexokinase (Trypanosoma brucei, UniProt Q38C41); assay: Confirmation assay for inhibitors of Trypanosoma brucei hexokinase 1-Analogue-first series. [Related pubchem assays (depositor defined):AID1430, AID1632, AID2516, AID2560, AID2579, AID2600, AID449725, AID492951]; assay type: functional
# T2 sequence (Q38C41 whole entry): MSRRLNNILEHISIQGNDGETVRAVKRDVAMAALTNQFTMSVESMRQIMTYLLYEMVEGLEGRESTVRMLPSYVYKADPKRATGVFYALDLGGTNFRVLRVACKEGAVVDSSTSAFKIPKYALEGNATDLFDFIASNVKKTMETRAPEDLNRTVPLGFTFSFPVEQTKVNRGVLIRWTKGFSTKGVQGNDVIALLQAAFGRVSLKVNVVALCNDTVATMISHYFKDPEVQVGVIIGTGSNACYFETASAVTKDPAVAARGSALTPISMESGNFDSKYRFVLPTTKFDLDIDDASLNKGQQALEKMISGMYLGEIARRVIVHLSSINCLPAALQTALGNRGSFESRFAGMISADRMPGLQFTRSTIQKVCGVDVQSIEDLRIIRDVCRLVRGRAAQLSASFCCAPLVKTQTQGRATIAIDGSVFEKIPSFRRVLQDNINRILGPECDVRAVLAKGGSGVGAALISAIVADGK
# [10] = Counterscreen for activators of the function of SWI/SNF related, matrix associated, actin dependent regulator of chromatin, subfamily a, member 2 (SMARCA2, BRM): Luminescence-based cell-based high throughput dose response assay to identify non-selective compounds using the VP16 reporter assay.; assay type: functional
# [11] = target: Glucose-6-phosphate 1-dehydrogenase (Homo sapiens, UniProt P11413); assay: inhibition of Homo sapiens G6PD, dose series – biochemical, fluorescence, selectivity assay for P. falciparum G6PD inhibitor project, dose response (AID 504792); assay type: functional
# Glucose-6-phosphate 1-dehydrogenase, sequence (P11413 whole entry): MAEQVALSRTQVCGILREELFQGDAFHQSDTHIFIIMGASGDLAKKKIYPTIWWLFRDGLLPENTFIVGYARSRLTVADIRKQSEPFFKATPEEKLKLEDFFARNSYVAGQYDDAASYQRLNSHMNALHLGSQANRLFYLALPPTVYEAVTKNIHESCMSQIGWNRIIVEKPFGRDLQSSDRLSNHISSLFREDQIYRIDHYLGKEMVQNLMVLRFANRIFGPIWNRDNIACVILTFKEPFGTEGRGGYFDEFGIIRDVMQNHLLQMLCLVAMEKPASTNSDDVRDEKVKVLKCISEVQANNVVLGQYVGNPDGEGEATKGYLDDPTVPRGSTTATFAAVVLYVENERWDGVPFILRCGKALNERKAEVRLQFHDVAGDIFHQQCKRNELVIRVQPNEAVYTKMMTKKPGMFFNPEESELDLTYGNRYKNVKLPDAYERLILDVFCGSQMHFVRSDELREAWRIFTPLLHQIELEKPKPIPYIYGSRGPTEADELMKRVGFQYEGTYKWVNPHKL
# [12] = target: SWI/SNF-related matrix-associated actin-dependent regulator of chromatin subfamily A member 2 (Homo sapiens, UniProt P51531); assay: Luminescence-based cell-based high throughput dose response assay to identify activators of the function of SWI/SNF related, matrix associated, actin dependent regulator of chromatin, subfamily a, member 2 (SMARCA2, BRM).; assay type: functional
# SWI/SNF-related matrix-associated actin-dependent regulator of chromatin subfamily A member 2, sequence (P51531 whole entry): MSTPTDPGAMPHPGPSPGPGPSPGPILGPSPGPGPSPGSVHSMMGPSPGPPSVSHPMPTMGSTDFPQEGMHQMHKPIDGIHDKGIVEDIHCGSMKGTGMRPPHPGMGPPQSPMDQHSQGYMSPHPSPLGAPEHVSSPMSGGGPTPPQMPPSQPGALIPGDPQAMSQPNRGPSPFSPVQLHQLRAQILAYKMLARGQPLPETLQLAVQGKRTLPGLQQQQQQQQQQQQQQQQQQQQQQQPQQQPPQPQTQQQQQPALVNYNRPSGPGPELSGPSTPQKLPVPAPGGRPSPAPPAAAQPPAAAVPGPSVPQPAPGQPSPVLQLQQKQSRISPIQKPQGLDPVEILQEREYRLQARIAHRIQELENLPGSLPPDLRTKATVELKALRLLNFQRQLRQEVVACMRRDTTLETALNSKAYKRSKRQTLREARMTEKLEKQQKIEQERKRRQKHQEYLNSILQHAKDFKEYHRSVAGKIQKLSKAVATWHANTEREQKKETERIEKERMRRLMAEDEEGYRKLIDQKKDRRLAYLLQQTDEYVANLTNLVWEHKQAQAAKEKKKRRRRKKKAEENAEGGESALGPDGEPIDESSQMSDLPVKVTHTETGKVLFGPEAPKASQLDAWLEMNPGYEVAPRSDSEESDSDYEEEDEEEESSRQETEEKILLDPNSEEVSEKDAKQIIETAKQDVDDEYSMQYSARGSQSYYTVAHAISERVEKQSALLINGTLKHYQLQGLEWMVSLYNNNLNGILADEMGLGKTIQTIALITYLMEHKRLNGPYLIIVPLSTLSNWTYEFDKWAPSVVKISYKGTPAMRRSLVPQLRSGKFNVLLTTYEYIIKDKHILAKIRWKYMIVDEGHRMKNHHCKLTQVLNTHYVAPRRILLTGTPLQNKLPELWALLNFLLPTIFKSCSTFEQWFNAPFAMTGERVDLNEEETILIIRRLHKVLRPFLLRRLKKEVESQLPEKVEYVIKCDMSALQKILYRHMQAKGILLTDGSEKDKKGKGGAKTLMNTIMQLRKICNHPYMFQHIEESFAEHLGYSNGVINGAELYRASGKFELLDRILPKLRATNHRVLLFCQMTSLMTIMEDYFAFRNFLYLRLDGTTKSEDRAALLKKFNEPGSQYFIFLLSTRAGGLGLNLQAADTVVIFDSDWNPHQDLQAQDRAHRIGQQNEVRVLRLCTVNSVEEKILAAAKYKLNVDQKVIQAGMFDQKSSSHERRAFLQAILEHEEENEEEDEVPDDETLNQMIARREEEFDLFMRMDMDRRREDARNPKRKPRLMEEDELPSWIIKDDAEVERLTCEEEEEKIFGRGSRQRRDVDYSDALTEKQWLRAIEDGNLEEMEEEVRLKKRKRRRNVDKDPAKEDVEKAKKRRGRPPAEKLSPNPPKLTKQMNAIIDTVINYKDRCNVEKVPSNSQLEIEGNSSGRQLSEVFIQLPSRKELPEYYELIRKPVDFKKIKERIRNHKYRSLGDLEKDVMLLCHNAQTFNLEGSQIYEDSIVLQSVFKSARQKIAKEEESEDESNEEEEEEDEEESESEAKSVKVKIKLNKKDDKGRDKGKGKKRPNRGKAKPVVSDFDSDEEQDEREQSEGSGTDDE
# [13] = target: Genome polyprotein (dengue virus type 2, UniProt P29990); assay: flavivirus cap methylation enzyme inhibition – biochemical, confirmation dose response, primary screen (AID 588689); assay type: functional
# [14] = target: Nonstructural protein 1 (Influenza A virus, UniProt Q194T2); assay type: functional, Influenza A virus (A/California/07/2009(H1N1))
# [15] = system: Vero; assay: viability of Vero cells under compound – cytotoxicity control for flavivirus capping enzyme inhibitors (AID 588742); assay type: functional; conditions: Chlorocebus sabaeus
# [16] = target: T3, Mitochondrial peptide methionine sulfoxide reductase (Bos taurus, UniProt P54149); assay: Absorbance-based biochemical high throughput dose response assay for activators of Methionine sulfoxide reductase A (MsrA).; assay type: functional
# T3 sequence (P54149 whole entry): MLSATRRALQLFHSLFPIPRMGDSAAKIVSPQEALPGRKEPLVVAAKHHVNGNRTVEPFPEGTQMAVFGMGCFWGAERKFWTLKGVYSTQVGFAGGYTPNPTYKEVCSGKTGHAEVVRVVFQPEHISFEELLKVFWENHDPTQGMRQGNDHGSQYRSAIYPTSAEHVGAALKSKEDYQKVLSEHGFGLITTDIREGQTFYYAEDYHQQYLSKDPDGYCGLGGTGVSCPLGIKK
# [17] = target: T4, Caspase-6 (Homo sapiens, UniProt P55212); assay: inhibition of CASP6 peptide cleavage – biochemical, VEID-R110 fluorescence, cherry-pick, dose response (AID 720632)
# T4 sequence (P55212 whole entry): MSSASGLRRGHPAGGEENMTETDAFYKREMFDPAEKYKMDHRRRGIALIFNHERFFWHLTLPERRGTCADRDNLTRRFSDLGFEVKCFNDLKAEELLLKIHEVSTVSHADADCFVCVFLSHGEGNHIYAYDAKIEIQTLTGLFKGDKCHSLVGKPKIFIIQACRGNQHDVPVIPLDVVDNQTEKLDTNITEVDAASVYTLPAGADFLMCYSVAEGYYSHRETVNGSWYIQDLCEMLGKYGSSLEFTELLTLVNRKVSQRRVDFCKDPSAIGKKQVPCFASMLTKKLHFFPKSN
# [18] = target: Tyrosyl-DNA phosphodiesterase 2 (Homo sapiens, UniProt O95551); assay: potency against TDP2 phosphodiesterase activity – biochemical, epi absorbance, IC50, dose response (AID 743297)
# [19] = target: T5, Rac GTPase-activating protein 1 (Homo sapiens, UniProt Q9H0H5); assay: blockers of MgcRacGAP-driven Rac1 GTP hydrolysis – biochemical, ADP Hunter fluorescence, primary and confirmatory, confirmation (AID 624330); assay type: functional
# T5 sequence (Q9H0H5 whole entry): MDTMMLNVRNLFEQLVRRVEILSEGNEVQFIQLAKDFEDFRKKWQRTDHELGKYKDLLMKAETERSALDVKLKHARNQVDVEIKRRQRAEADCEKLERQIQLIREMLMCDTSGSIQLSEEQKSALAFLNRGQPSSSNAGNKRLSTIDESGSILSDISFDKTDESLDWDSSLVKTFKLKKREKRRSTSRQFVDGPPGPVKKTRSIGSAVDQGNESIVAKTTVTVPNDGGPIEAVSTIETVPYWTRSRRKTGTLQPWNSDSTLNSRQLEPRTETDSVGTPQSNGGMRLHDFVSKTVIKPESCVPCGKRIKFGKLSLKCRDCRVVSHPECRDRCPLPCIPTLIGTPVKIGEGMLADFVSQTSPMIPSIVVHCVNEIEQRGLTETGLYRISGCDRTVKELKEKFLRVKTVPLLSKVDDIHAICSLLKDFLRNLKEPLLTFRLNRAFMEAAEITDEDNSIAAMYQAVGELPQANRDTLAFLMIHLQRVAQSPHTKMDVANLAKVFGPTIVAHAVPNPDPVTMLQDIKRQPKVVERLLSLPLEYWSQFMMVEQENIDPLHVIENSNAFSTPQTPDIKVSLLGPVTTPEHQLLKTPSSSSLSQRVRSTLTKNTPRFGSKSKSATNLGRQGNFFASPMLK
# [20] = target: T6, Interleukin-8 (Homo sapiens, UniProt P10145); assay: Dose Response confirmation of uHTS small molecule hits for cystic fibrosis induced NFkb Inhibitors in a PAF-induced IL8 counterscreen.; assay type: functional; conditions: read-out: IC50_Mean
# T6 sequence (P10145 whole entry): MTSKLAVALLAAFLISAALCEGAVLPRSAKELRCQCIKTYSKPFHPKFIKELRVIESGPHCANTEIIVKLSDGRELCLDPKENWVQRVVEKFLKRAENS
# [21] = target: T6, Interleukin-8; assay: Dose Response confirmation of uHTS small molecule hits for cystic fibrosis induced NFkb Inhibitors in a TNFa-induced IL8 counterscreen.; assay type: functional; conditions: read-out: IC50_Mean
# [22] = blockers of HIV-1 envelope-mediated cell-cell fusion – cherry-pick, dose response (AID 652057); assay type: functional, cell-based
# [23] = off-target signal loss in HeLa-CEM21 co-culture – HeLa F-luc CTL cells, cherry-picked, counter-screen for HIV-1 Env fusion inhibitor project, dose response (AID 652040); assay type: functional, cell-based;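 further: potency for signal decrease marking cytotoxic or nonspecific inhibition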
# [24] = HIV-1 AD8 envelope cell-cell fusion blockers – cherry-pick, dose response (AID 652062); assay type: functional, cell-based;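 further: luciferase signal from cell-cell fusion driven by HIV-1 clade B AD8 Env; potency is for inhibitors of fusion seen as a drop in luminescence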
# [25] = viability loss in CEM21 cells – cell-based, CellTiter-Glo luminescence, cherry-picked, cytotoxicity control for viral fusion inhibitor project, dose response (AID 652042); assay type: functional;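 further: potency for signal decrease meaning cytotoxicity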
# [26] = blockers of HIV-1 ZM109 envelope-driven cell-cell fusion – HeLa effector, CEM target cells, luciferase, cherry-pick, dose response (AID 652058); assay type: functional, cell-based;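 further: luciferase signal from HIV-1 Env mediated cell-cell fusion of effector and target cells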
# [27] = general cell-killing toxicity readout – plate reader, dry powder samples, cytotoxicity control for PAX8 inhibitor project, dose response (AID 743021); assay type: functional, cell-based
# [28] = target: Paired box protein Pax-8 (Homo sapiens, UniProt Q06710); assay: PAX8 transcriptional activity inhibition in RMG-I – RMG-I cells, luciferase, cherry-pick, dose response (AID 687027); assay type: functional, cell-based;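 further: luciferase reporter driven by Pax8 target thyroperoxidase promoter measured by SteadyGlo luminescence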
# Paired box protein Pax-8, sequence (Q06710 whole entry): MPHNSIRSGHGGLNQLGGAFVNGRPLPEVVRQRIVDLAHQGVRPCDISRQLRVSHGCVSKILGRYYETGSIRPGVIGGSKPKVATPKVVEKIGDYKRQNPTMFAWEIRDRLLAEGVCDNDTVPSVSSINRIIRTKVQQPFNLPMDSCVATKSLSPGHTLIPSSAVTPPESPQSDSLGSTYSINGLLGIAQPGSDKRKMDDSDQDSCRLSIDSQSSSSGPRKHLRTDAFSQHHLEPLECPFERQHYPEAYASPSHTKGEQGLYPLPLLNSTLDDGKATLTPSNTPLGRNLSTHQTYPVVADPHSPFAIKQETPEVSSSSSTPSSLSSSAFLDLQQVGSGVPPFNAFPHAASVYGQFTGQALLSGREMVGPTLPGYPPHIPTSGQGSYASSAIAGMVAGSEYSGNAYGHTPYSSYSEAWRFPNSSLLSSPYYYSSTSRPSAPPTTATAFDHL
# [29] = target: Beta-galactosidase (Escherichia coli, UniProt Q8VNN2); assay: Dose response counterscreen for EBI2 assay utilizing the enzyme, b-galactosidase.; assay type: functional
# Beta-galactosidase, sequence (Q8VNN2 whole entry): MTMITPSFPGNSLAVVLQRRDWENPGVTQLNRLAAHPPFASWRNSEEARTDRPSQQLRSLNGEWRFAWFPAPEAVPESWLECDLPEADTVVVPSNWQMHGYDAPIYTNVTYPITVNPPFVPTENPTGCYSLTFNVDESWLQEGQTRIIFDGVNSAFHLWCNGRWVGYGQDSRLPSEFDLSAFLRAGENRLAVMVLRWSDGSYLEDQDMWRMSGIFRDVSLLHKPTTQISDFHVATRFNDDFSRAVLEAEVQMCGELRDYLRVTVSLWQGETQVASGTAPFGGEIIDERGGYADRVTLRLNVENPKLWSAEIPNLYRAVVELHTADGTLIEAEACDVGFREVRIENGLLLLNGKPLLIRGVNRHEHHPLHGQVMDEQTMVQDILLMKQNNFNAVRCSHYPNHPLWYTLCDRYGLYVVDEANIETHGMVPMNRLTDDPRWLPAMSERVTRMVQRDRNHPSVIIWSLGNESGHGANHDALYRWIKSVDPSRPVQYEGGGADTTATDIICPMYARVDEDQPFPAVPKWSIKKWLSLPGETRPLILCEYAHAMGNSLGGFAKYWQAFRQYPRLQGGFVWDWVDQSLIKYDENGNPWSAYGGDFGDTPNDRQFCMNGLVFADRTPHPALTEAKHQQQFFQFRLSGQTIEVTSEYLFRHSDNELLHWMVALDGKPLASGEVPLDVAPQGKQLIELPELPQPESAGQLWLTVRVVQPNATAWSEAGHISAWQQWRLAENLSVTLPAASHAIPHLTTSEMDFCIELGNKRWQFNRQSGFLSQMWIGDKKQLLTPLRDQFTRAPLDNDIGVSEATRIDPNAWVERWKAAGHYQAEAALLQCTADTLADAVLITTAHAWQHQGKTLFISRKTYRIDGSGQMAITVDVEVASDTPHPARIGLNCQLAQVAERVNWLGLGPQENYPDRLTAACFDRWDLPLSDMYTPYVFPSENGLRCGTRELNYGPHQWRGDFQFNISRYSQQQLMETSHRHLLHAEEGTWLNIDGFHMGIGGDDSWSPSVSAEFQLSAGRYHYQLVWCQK
# [30] = A Cell Based Secondary Assay to Explore Cytotoxicity in THP-1 Cells of Compounds that Modulate Mycobacterium tuberculosis in Media Containing Glycerol versus Media without Glycerol (2).; assay type: functional
# [31] = Vero cell cytotoxicity, cytotoxicity control for M. tuberculosis inhibitor project, purified and synthesized samples, set 3 (AID 504684); assay type: functional
# [32] = general mammalian cell viability loss – inhibitor set, cherry-pick, set 2, cytotoxicity control for miR-122 modulator project, dose response (AID 720697); assay type: functional, cell-based
# [33] = general mammalian cell viability loss – activator set, cherry-pick, cytotoxicity control for miR-122 modulator project, dose response (AID 720690); assay type: functional, cell-based;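 further: HEK293T human cells scored for general mammalian cytotoxicity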
smiles,measurement,setting,value
O=C(NNC(=S)Nc1ccccc1Cl)c1ccccc1Cl,IC50,[1],> 122 µM (inactive)
NC(=O)CCC1NC(=S)N(Cc2ccccc2)C1=O (centres undefined),IC50,[2],> 94.1 µM (inactive)
Cc1ccc(OCCOCCOc2ccc(Br)cc2/C=N\NC(=O)c2ccncc2)cc1,IC50,[3],> 69.5 µM (inactive)
same,IC50,[4],> 69.5 µM (inactive)
Cc1cccc(C(C#N)c2nc3ccccc3nc2C(F)(F)F)c1 (centres undefined),EC50,[5],> 29.9 µM (inactive)
same,EC50,[6],> 29.9 µM (inactive)
same,IC50,[7],1.58 µM (active)
same,IC50,[8],> 29.9 µM (inactive)
Cn1sc2ccccc2c1=O,IC50,[9],> 25 µM (inactive)
same,EC50,[10],> 91.2 µM (inactive)
same,IC50,[11],37.3 µM (inactive)
same,EC50,[12],> 91.2 µM (inactive)
C[n+]1c(-c2ccccc2)cc2c(=Cc3ccc([N+](=O)[O-])cc3)c3ccccc3n21,IC50,[13],14.2 µM (active)
same,IC50,[14],9.36 µM (active)
same,CC50,[15],34.8 µM (active)
same,IC50,[11],> 80 µM (inactive)
same,EC50,[16],> 104 µM (inactive)
same,AC50,[17],309 nM (active)
same,IC50,[18],> 128 µM (inactive)
same,IC50,[19],31.5 µM (active)
C=C1C(=O)[C@]23C[C@H]1CCC2[C@@]1(C)C(C[C@@H]3O)[C@](C)(C(=O)O)CC[C@@H]1O (some centres undefined),EC50,[10],> 91.3 µM (inactive)
same,IC50,[20],817 nM (active)
same,EC50,[12],> 10.1 µM (inactive)
same,IC50,[21],39.7 µM (inactive)
OCCCn1c(CCNc2nc(-c3ccc(F)cc3)cs2)nc2cc(C(F)(F)F)ccc21,AC50,[22],8.76 µM (active)
same,AC50,[23],43.1 µM (active)
same,AC50,[24],16 µM (active)
same,AC50,[25],51.5 µM (active)
same,AC50,[26],5.8 µM (active)
Brc1ccc2nc(-c3ccc(CN4CCC(c5nc6ccccc6[nH]5)CC4)cc3)c(-c3ccccc3)nc2c1,AC50,[27],37.8 µM (active)
same,AC50,[28],9.03 µM (active)
O=C(/C=C/c1ccccc1)N1CCN(CCN2C(=O)c3cccc4cccc(c34)C2=O)CC1,IC50,[29],> 80 µM (inactive)
same,CC50,[30],60.2 µM (active)
same,CC50,[31],> 100 µM (active)
CN1C(=O)c2cc(NC(=O)c3ccc(C(F)(F)F)cc3)ccc2OC[C@H]2O[C@H](CC(=O)NC3Cc4ccccc4C3)CC[C@@H]21,AC50,[32],324 nM (active)
same,AC50,[33],335 nM (active)
COc1ccc2oc(C(=O)OCC(=O)NCc3ccccc3OC)c(C)c2c1,EC50,[5],> 29.9 µM (inactive)
same,EC50,[6],7.16 µM (active)
same,IC50,[7],6.65 µM (active)
same,IC50,[8],> 29.9 µM (inactive)
O=C(NN=Cc1sc(=O)[nH]c1-[n+]1ccc2ccccc2c1)c1ccccc1[O-],IC50,[2],> 94.1 µM (inactive)
COc1ccc(OC)c(-c2csc(NC(=O)COC(=O)C3(C)CC3(Cl)Cl)n2)c1 (centres undefined),IC50,[3],> 69.5 µM (inactive)
same,IC50,[4],13.1 µM (inactive)
CCOC(=O)C1=C(Nc2ccc(Cl)cc2)S/C(=C\c2ccccn2)C1=O,IC50,[29],> 80 µM (inactive)
